Holding throughout (assay type): cell-based
Test [1] concerns Anaerobic strains. In words: MIC by agar dilution, maxillary sinus isolates. Conditions: for MIC: 24 h, Anaerobic strains (n = 22): 12 Bacteroides spp., 7 Peptostreptococcus spp., 3 Bacteroides urealyticus. Here is the method:
(§1) Test strains were obtained from recent maxillary sinus aspiration. Identification of organisms was by standard methods (see, for example, Murray, P. R., et al. Manual of Clinical Microbiology. 6th ed. American Society of Microbiology 1995: 282-620).
(§2) Antimicrobial activity was tested against 250 selected isolates (Table 1).
(§3) The agar dilution method using replicate plating of the organisms onto a series of agar plates of increasing concentrations was used (see, for example, National Committee for Clinical Laboratory Standards. Methods for antimicrobial susceptibility tests for bacteria that growth aerobically. Approved standards M 7-A4. National Committee for Laboratory Standards, Villanova, Pa., 1997).
(§4) MICs were determined by using doubling dilutions of between 0.02-256 mg/L with an inoculum of 10^4 CFU in area of 5-8 mm.
(§5) Haemophilus Test Medium was used for Haemophilus spp. and Wilkins-Chalgren agar was used for anaerobes.

The subject of test [2] is Haemophilus influenzae. In words: MIC by agar dilution, maxillary sinus isolates. To be noted: H. influenzae (n = 45); for MIC / MIC50 / MIC90: Haemophilus influenzae; for MIC: 24 h. Here is the method: as §1, §2, §3, §4, §5
Test [3] can be described thus: MIC by agar dilution, maxillary sinus isolates. To be noted: Streptococcus spp.: 5 Enterobacteriaceae, 6 non-fermentative Gram negative bacilli, 2 Neisseria meningitidis, 2 beta-haemolytic Streptococcus. Here is the method:
as §1, §2, §3, §4, §5

For test [4], the system named is Haemophilus parainfluenzae. In words: MIC by agar dilution, maxillary sinus isolates. To be noted: H. parainfluenzae (n = 10); for MIC: 24 h. On the procedure: as §1, §2, §3, §4, §5
The subject of test [5] is Staphylococcus aureus. As to the kind of experiment: MIC by agar dilution, maxillary sinus isolates. To be noted: S. aureus (n = 31). On the procedure: as §1, §2, §3, §4, §5
The test system of test [6] is Streptococcus pneumoniae. As to the kind of experiment: MIC by agar dilution, maxillary sinus isolates. Conditions: S. pneumoniae (n = 85); for MIC / MIC50 / MIC90: Streptococcus pneumoniae; for MIC: 24 h. Here is the method:
as §1, §2, §3, §4, §5

Test [7] deals with Moraxella catarrhalis. As to the kind of experiment: MIC by agar dilution, maxillary sinus isolates. Conditions: M. catarrhalis (n = 45); for MIC / MIC50 / MIC90: Moraxella catarrhalis; for MIC: 24 h. On the procedure:
as §1, §2, §3, §4, §5

The test system of test [8] is Streptococcus spp. As to the kind of experiment: MIC by agar dilution, maxillary sinus isolates. To be noted: Streptococcus spp. (various other strains, 15). Here is the method:
as §1, §2, §3, §4, §5

Converted amounts (≈) assume the structure as drawn.

The values that follow come from patent US20050288300A1, “Methods of use fluoroquinolone compounds against maxillary sinus pathogenic bacteria” (LG Life Sciences Limited., priority 1999, published 2005).

On to `CO/N=C1\CN(c2nc3c(cc2F)c(=O)c(C(=O)O)cn3C2CC2)CC1CN` (racemic) [Gemifloxacin, (R,S)-7-(3-aminomethyl-4-methoxyiminopyrrolidin-1-yl)-1-cyclopropyl-6-fluoro-4-oxo-1,4-dihydro-1,8-naphthyridine-3-carboxylic acid], for which the MIC in test [1] is 0.03 to 0.25 µg/mL (≈ 0.077 to 0.642 µM); in test [2], 0.02 to 0.03 µg/mL (≈ 0.0514 to 0.077 µM); in test [4], 0.02 to 0.12 µg/mL (≈ 0.0514 to 0.308 µM); in test [6] it was 0.02 to 0.06 µg/mL (≈ 0.0514 to 0.154 µM); in test [7], 0.02 to 0.03 µg/mL (≈ 0.0514 to 0.077 µM). Besides, the “MIC 90%” value in test [2] and in test [7] was “≦0.02 mg/L” each time. Moreover, the MIC50 in test [2] and in test [7] was no more than 0.02 µg/mL in each case. The MIC90 in test [2] and in test [7] was no more than 0.02 µg/mL each time. The “MIC Range” value in test [3] was “≦0.02-0.5 mg/L”; in test [5], 0.03 to 1 µg/mL.

Take `CC1(C)S[C@@H]2[C@H](NC(=O)[C@H](N)c3ccc(O)cc3)C(=O)N2[C@H]1C(=O)O` [Amoxycillin]: the MIC50 in test [1] (Anaerobic strains (n = 22)) was found to be 0.25 µg/mL (≈ 0.684 µM); in test [2], 0.25 µg/mL (≈ 0.684 µM); in test [4], 0.06 µg/mL (≈ 0.164 µM); in test [6], 0.03 µg/mL (≈ 0.0821 µM); in test [8], 2 µg/mL (≈ 5.47 µM). The MIC90 is 2 µg/mL (≈ 5.47 µM) in test [2]; 1 µg/mL (≈ 2.74 µM) in test [4]; no less than 1 µg/mL in test [5] (Staphylococcus aureus); 0.03 µg/mL (≈ 0.0821 µM) in test [6]; 4 µg/mL (≈ 10.9 µM) in test [8]. Also, the MIC in test [4] fell in the range of 0.03 to 1 µg/mL (≈ 0.0821 to 2.74 µM); in test [6] it was 0.02 to 1 µg/mL (≈ 0.0547 to 2.74 µM); in test [7], 0.02 to 16 µg/mL (≈ 0.0547 to 43.8 µM). Besides, the “MIC 90%” value in test [5] came to 1 µg/mL (≈ 2.74 µM). Also, the “MIC Range” value in test [5] is 0.06 to 2 µg/mL.

For the molecule `Cc1c(F)c(N2CCNC(C)C2)cc2c1c(=O)c(C(=O)O)cn2C1CC1` (centres unmarked) [Grepafloxacin], the MIC in test [1] lay in the range of 0.25 to 8 µg/mL (≈ 0.696 to 22.3 µM); in test [2], 0.02 to 0.03 µg/mL (≈ 0.0556 to 0.0835 µM); in test [4], 0.02 to 0.12 µg/mL (≈ 0.0556 to 0.334 µM); in test [6], 0.03 to 0.5 µg/mL (≈ 0.0835 to 1.39 µM); in test [7] it was 0.02 to 0.25 µg/mL (≈ 0.0556 to 0.696 µM). The MIC50 in test [1] (Anaerobic strains (n = 22)) is 0.25 µg/mL (≈ 0.696 µM); in test [2] it was no more than 0.02 µg/mL; in test [5] (Staphylococcus aureus), 0.12 µg/mL (≈ 0.334 µM); in test [6], 0.25 µg/mL (≈ 0.696 µM); in test [7], no more than 0.02 µg/mL. In addition, the MIC90 in test [1] (Anaerobic strains (n = 22)) is 8 µg/mL (≈ 22.3 µM); in test [2], no more than 0.02 µg/mL; in test [4] it was 0.1 µg/mL (≈ 0.278 µM); in test [6], no less than 0.25 µg/mL; in test [7], no more than 0.02 µg/mL. The “MIC 90%” value was “≦0.02 mg/L” in test [2], 0.25 µg/mL (≈ 0.696 µM) in test [6] and “≦0.02 mg/L” in test [7]. Also, the “MIC Range” value was “≦0.02-1 mg/L” in test [3] and 0.06 to 0.25 µg/mL in test [5].

Take `C[C@H]1COc2c(N3CCN(C)CC3)c(F)cc3c(=O)c(C(=O)O)cn1c23` [Levofloxacin]: the MIC in test [1] lay in the range of 0.12 to 1 µg/mL (≈ 0.332 to 2.77 µM); in test [2], 0.02 to 0.03 µg/mL (≈ 0.0553 to 0.083 µM); in test [4], 0.03 to 0.25 µg/mL (≈ 0.083 to 0.692 µM); in test [6], 0.12 to 2 µg/mL (≈ 0.332 to 5.53 µM); in test [7], 0.02 to 0.12 µg/mL (≈ 0.0553 to 0.332 µM). In addition, the “MIC Range” value in test [3] is 0.03 to 0.25 µg/mL; in test [5] it was 0.12 to 0.5 µg/mL. Further, the “MIC 90%” value in test [6] was 1 µg/mL (≈ 2.77 µM). For the same molecule, in test [8], the MIC50 was determined as 0.12 µg/mL (≈ 0.332 µM).

In the case of `COc1c(N2C[C@@H]3CCCN[C@@H]3C2)c(F)cc2c(=O)c(C(=O)O)cn(C3CC3)c12` [Moxifloxacin], in test [2], the MIC was in the range of 0.02 to 0.12 µg/mL (≈ 0.0498 to 0.299 µM) and the MIC50 worked out at 0.13 µg/mL (≈ 0.324 µM). The “MIC Range” value in test [3] is reported as “≦0.02-0.5 mg/L”. Besides, in test [5], the “MIC Range” value was 0.03 to 0.12 µg/mL.

As to `CC1COc2c(N3CCN(C)CC3)c(F)cc3c(=O)c(C(=O)O)cn1c23` (centres unmarked) [Ofloxacin], the MIC is 0.25 to 2 µg/mL (≈ 0.692 to 5.53 µM) in test [1], 0.02 to 0.06 µg/mL (≈ 0.0553 to 0.166 µM) in test [2], 0.25 to 4 µg/mL (≈ 0.692 to 11.1 µM) in test [6] and 0.02 to 0.25 µg/mL (≈ 0.0553 to 0.692 µM) in test [7]. Besides, the MIC50 in test [1] (Anaerobic strains (n = 22)) and in test [5] (Staphylococcus aureus) was 0.5 µg/mL (≈ 1.38 µM) each time. The “MIC Range” value in test [3] was in the range of 0.06 to 0.5 µg/mL; in test [5], 0.25 to 1 µg/mL. Further, the “MIC 90%” value in test [6] amounted to 2 µg/mL (≈ 5.53 µM).

With `C[C@@H]1CN(c2c(F)c(N)c3c(=O)c(C(=O)O)cn(C4CC4)c3c2F)C[C@H](C)N1` [Sparfloxacin], the MIC is 0.25 to 16 µg/mL (≈ 0.637 to 40.8 µM) in test [1], 0.03 to 1 µg/mL (≈ 0.0765 to 2.55 µM) in test [2], 0.03 to 0.5 µg/mL (≈ 0.0765 to 1.27 µM) in test [6] and 0.02 to 1 µg/mL (≈ 0.051 to 2.55 µM) in test [7]. In addition, the “MIC Range” value in test [3] is “≦0.02-0.5 mg/L”. For the same molecule, in test [6], the “MIC 90%” value turned out to be 0.5 µg/mL (≈ 1.27 µM). The molecule also showed an MIC90 in test [6] of no less than 0.25 µg/mL. The molecule also returned an MIC50 in test [7] of no more than 0.02 µg/mL.

Consider `N[C@@H]1[C@H]2CN(c3nc4c(cc3F)c(=O)c(C(=O)O)cn4-c3ccc(F)cc3F)C[C@@H]12` [Trovafloxacin], for which the MIC in test [1] was in the range of 0.06 to 4 µg/mL (≈ 0.144 to 9.61 µM); in test [2] it was 0.02 to 0.06 µg/mL (≈ 0.048 to 0.144 µM); in test [4], 0.02 to 0.12 µg/mL (≈ 0.048 to 0.288 µM); in test [6], 0.02 to 0.12 µg/mL (≈ 0.048 to 0.288 µM); in test [7] it was 0.02 to 0.06 µg/mL (≈ 0.048 to 0.144 µM). In addition, the MIC50 in test [2] was no more than 0.02 µg/mL; in test [4], 0.03 µg/mL (≈ 0.0721 µM); in test [5] (Staphylococcus aureus) it was 0.03 µg/mL (≈ 0.0721 µM); in test [7], no more than 0.02 µg/mL. In test [3], the “MIC Range” value is “≦0.02-0.5 mg/L”. In test [5], the “MIC 90%” value came out at 0.03 µg/mL (≈ 0.0721 µM).
